Results reported in US20090318551A1, “USES OF ANALOGS OF 3-O-ACETYL-11-KETO-BETA-BOSWELLIC ACID” (priority 2004, published 2009).
Where a name gives a salt, the structure may show the parent alone.

What was measured:
5-Lipoxygenase = assay: 5-Lox assay (colorimetric, ferric xylenol orange); type: biochemical; details: linoleic acid substrate, pH 6.3; for % inhibition @ 100 μM: 100 μM test substance; for % inhibition @ 250 μM: 250 μM test substance
Procedure: The AKBA analogs were screened for their 5-Lipoxygenase inhibitory potential using colorimetric method of Craig A. Gay et al (Anal Biochem., 304, 42 46, 2002). The assay mixture contained 50 mM phosphate buffer pH 6.3, 5-Lipoxygenase, various concentrations of test substances and linoleic acid in a total volume of 0.5 mL after 5 min incubation of above reaction mixture 0.5 ml ferric xylenol orange reagent was added and OD was measured after two minutes at 585 nm using spectrophotometer (varian). Controls were run along with test in a similar manner except using vehicle instead of test substance solution. Percent inhibition was calculated by comparing absorbance of test with that of control

Artemia salina = assay: Brine shrimp lethality (BSL) assay; type: in vivo; details: nauplii, viability/mortality after 24 hr; for LC50: Artemia salina, read-out: LD50 in mcM
Text: Brine shrimp lethality (BSL) assay is a simple bench top bioassay developed by McLaughlin, et. al. (Studies in Natural Product Chemistry, 9, page 383, 1991 and Am. Chem. Soc. Symp. Series, 534, page 114, 1992) and the results obtained by this assay have been reported to be corroborative with the cytotoxicities determined in 9KB and 9PS cells. The procedure involves hatching Artemia salina cysts in a cone shaped vessel and collecting active nauplii after 48 hr and treating with known concentrations of test substances and vehicle (control) in tubes each tube containing 10 nauplii and checking viability/mortality after 24 hr. Percentage lethality was calculated by comparing mean values of control and test sets of three tubes each. LC50 values were obtained from the graph plotted micro molar concentration against percent lethality.

| Compound | % inhibition @ 100 μM (5-Lipoxygenase) | LD50 in mcM (Artemia salina) | % inhibition @ 250 μM (5-Lipoxygenase) | LC50 (Artemia salina) |
| --- | --- | --- | --- | --- |
| C[C@H](N)C(=O)O[C@@H]1CC[C@@]2(C)C(CC[C@]3(C)C2C(=O)C=C2C4[C@@H](C)[C@H](C)CC[C@]4(C)CC[C@]23C)[C@@]1(C)C(=O)O (stereo partly drawn) [Compound 11, 3-O-Alanyl-11-keto-β-boswellic acid hydrochloride] | 33.6% | 29.0 mcM | – | – |
| CC(=O)OC1CC[C@@]2(C)C(CC[C@]3(C)C2C(=O)C=C2C4[C@@H](C)[C@H](C)CC[C@]4(C)CC[C@]23C)[C@@]1(C)N (stereo partly shown) [Compound 25, 3-Acetoxy-4-amino-11-keto-24-norurs-12-ene] | – | – | 60.5% | 6 µM |
| C[C@@H]1CC[C@]2(C)CC[C@]3(C)C(=CC(=O)C4[C@@]5(C)CC[C@@H](OC(=O)CN)[C@](C)(C(=O)O)C5CC[C@]43C)C2[C@H]1C (stereo partly drawn) [Compound 10, 3-O-Glycyl-11-keto-β-boswellic acid hydrochloride] | 23.9% | 12.0 mcM | – | – |
| CC(=O)OC1CC[C@@]2(C)C(CC[C@]3(C)C2C(=O)C=C2C4[C@@H](C)[C@H](C)CC[C@]4(C)CC[C@]23C)[C@@]1(C)C(=O)NN (stereo partly drawn) [Compound 20, N-(3-O-Acetyl-11-keto-β-boswelloyl)-hydrazide] | – | – | 54.3% | 2.3 µM |
| COC(=O)[C@]1(C)C2CC[C@]3(C)C(C(=O)C=C4C5[C@@H](C)[C@H](C)CC[C@]5(C)CC[C@]43C)[C@@]2(C)CC[C@@H]1O (stereo partly drawn) [Compound 12, Methyl 3β-hydroxy-11-ketours-12-en-24-oate] | – | – | 0.37% | > 100 µM |
| COc1ccc(C=CC(=O)OC2CCC3(C)C(CCC4(C)C3C(=O)C=C3C5C(C)C(C)CCC5(C)CCC34C)C2(C)C(=O)O)cc1OC (stereo not drawn) [Compound 7, 3-O -(3′,4′-dimethoxycinnamoyl)-11-keto-β-boswellic acid] | – | 6.2 mcM | 17.8% | – |
| COC(=O)[C@@]1(C)C(C#N)CC[C@@]2(C)C1CC[C@]1(C)C2C(=O)C=C2C3[C@@H](C)[C@H](C)CC[C@]3(C)CC[C@]21C (stereo partly drawn) [Compound 14, Methyl 3α-cyano-11-ketours-12-en-24-oate] | – | – | 3.71% | > 100 µM |
| CC(=O)OC1CC[C@@]2(C)C(CC[C@]3(C)C2C(=O)C=C2C4[C@@H](C)[C@H](C)CC[C@]4(C)CC[C@]23C)[C@@H]1C (stereo partly shown) [Compound 17, 3-Acetoxy-11-keto-24-norurs-12-ene] | – | – | 0% | > 100 µM |
| C[C@@H]1CC[C@]2(C)CC[C@]3(C)C(=CC(=O)C4[C@@]5(C)CCC(OC(=O)CCl)[C@](C)(C(=O)O)C5CC[C@]43C)C2[C@H]1C (stereo partly drawn) [Compound 2, 3-O-(Chloroacetyl)-11-keto-β-boswellic acid] | – | – | 3.12% | 98 µM |
| CC(=O)OC1CC[C@@]2(C)C(CC[C@]3(C)C2C(=O)C=C2C4[C@@H](C)[C@H](C)CC[C@]4(C)CC[C@]23C)[C@@]1(C)C#N (stereo partly shown) [Compound 26, 3-Acetoxy-4-cyano-11-keto-24-norurs-12-ene] | – | – | 9.8% | > 100 µM |
| COC(=O)[C@@]1(C)/C(=N\O)CC[C@@]2(C)C1CC[C@]1(C)C2C(=O)C=C2C3[C@@H](C)[C@H](C)CC[C@]3(C)CC[C@]21C (stereo partly shown) [Compound 16, Methyl 3-oximino-11-ketours-12-en-24-oate] | – | – | 41.6% | > 100 µM |
| COc1cc(C(=O)O[C@@H]2CC[C@@]3(C)C(CC[C@]4(C)C3C(=O)C=C3C5[C@@H](C)[C@H](C)CC[C@]5(C)CC[C@]34C)[C@@]2(C)C(=O)O)cc(O)c1O (stereo partly drawn) [Compound 3, 3-O-(5′-O-methylgalloyl)-11-keto-β-boswellic acid] | 27.4% | – | – | 33 µM |
| CC(=O)OC1CC[C@@]2(C)C(CC[C@]3(C)C2C(=O)C=C2C4[C@@H](C)[C@H](C)CC[C@]4(C)CC[C@]23C)[C@@]1(C)C(=O)NCCN (stereo partly drawn) [Compound 21, N-(3-O-Acetyl-11-keto-β-boswelloyl)-ethylenediamine] | – | – | 76.6% | 71 µM |
| COc1cc(C=CC(=O)OC2CCC3(C)C(CCC4(C)C3C(=O)C=C3C5C(C)C(C)CCC5(C)CCC34C)C2(C)C(=O)O)cc(O)c1O (stereo not drawn) [Compound 8, 3-O-(3′,4′-Dihydroxy-5′-methoxycinnamoyl)-11-keto-β-boswellic acid] | – | 12.0 mcM | 8.1% | – |
| CC1CCC2(C)CCC3(C)C(=CC(=O)C4C5(C)CCC(OC=O)C(C)(C(=O)O)C5CCC43C)C2C1C (stereo not drawn) [Compound 1, 3-O-Formyl-11-keto-β-boswellic acid] | – | 55.0 mcM | 5.5% | – |
| COC(=O)[C@]1(C)C2CC[C@]3(C)C(C(=O)C=C4C5[C@@H](C)[C@H](C)CC[C@]5(C)CC[C@]43C)[C@@]2(C)CC[C@H]1S (stereo partly drawn) [Compound 15, Methyl 3α-thiohydroxy-11-ketours-12-en-24-oate] | – | – | 53.1% | 5.2 µM |
| CC(=O)OC1CC[C@@]2(C)C(CC[C@]3(C)C2C(=O)C=C2C4[C@@H](C)[C@H](C)CC[C@]4(C)CC[C@]23C)[C@@]1(C)C(=O)OCCN(C)C (stereo partly drawn) [Compound 18, (2′-N,N-Dimethylaminoethyl) 3-O-acetyl-11-keto-β-boswellate] | 25.4% | – | – | > 100 µM |
| CC(=O)OC1CCC2(C)C(CCC3(C)C2C(=O)C=C2C4C(C)C(C)CCC4(C)CCC23C)C1(C)C(=O)N1CCNCC1 (stereo not drawn) [Compound 23, N-(3-O-Acetyl-11-keto-β-boswelloyl)-piperzine] | 34.9% | 0.88 mcM | – | – |
| CC(=O)OC1CC[C@@]2(C)C(CC[C@]3(C)C2C(=O)C=C2C4[C@@H](C)[C@H](C)CC[C@]4(C)CC[C@]23C)[C@@]1(C)N=C=O (stereo partly shown) [Compound 24, 3-Acetoxy-11-keto-24-norurs-12-en-4-isocyanate] | – | – | 0% | > 100 µM |
| CC(=O)OC1CC[C@@]2(C)C(CC[C@]3(C)C2C(=O)C=C2C4[C@@H](C)[C@H](C)CC[C@]4(C)CC[C@]23C)[C@@]1(C)C(=O)NCCO (stereo partly drawn) [Compound 22, N-(3-O-Acetyl-11-keto-β-boswelloyl)-2-aminoethanol] | – | – | 10.4% | > 100 µM |
| CC1CCC2(C)CCC3(C)C(=CC(=O)C4C5(C)CCC(OC(=O)C=Cc6ccc(O)cc6)C(C)(C(=O)O)C5CCC43C)C2C1C (stereo not drawn) [Compound 6, 3-O-[4′-Hydroxycinnamoyl]-11-keto-β-boswellic acid] | – | 6.0 mcM | 11.3% | – |
| COC(=O)[C@]1(C)C2CC[C@]3(C)C(C(=O)C=C4C5[C@@H](C)[C@H](C)CC[C@]5(C)CC[C@]43C)[C@@]2(C)CC[C@@H]1Br (stereo partly drawn) [Compound 13, Methyl 3β-bromo-11-ketours-12-en-24-oate] | – | – | 17.6% | > 100 µM |
| CC1CCC2(C)CCC3(C)C(=CC(=O)C4C5(C)CCC(OC(=O)CCC(=O)O)C(C)(C(=O)O)C5CCC43C)C2C1C (stereo not drawn) [Compound 4, 3-O -Succinyl-11-keto-β-boswellic acid] | – | 69.0 mcM | 41.1% | – |
| CC(=O)OC1CC[C@@]2(C)C(CC[C@]3(C)C2C(=O)C=C2C4[C@@H](C)[C@H](C)CC[C@]4(C)CC[C@]23C)[C@@]1(C)C(N)=O (stereo partly drawn) [Compound 19, 3-O-Acetyl-11-keto-β-boswellic acid amide] | – | – | 35.8% | 4.6 µM |
| COC(=O)C1(C)C(OC(=O)CNC(=O)OC(C)(C)C)CCC2(C)C1CCC1(C)C2C(=O)C=C2C3C(C)C(C)CCC3(C)CCC21C (stereo not drawn) [Compound 9, Methyl 3-O-(N-Boc-glycyl)-11-keto-β-boswellate] | – | >100 mcM | 16.7% | – |
| C[C@@H]1CC[C@]2(C)CC[C@]3(C)C(=CC(O)C4[C@@]5(C)CC[C@@H](O)[C@](C)(C(=O)O)C5CC[C@]43C)C2[C@H]1C (stereo partly drawn) [Compound 27, 11-Hydroxy-β-boswellic acid] | – | – | 12.2% | 28.3 µM |
